{"source": "patent US6403116B1", "about": "“Coenzyme Q10 formulation” (Triarco Inductries, Inc., priority 2000, dated 2002)", "key": {"[1]": {"test": "Coenzyme Q10 added separately to aqueous solutions of the other composition ingredients", "format": "physicochemical", "settings": "5 mg coenzyme Q10 added to 100 mL of 1%, 2.5% and 5% aqueous solutions of all ingredients except coenzyme Q10", "procedure": "To test this theory a 1%, 2.5% and 5% aqueous solutions of the all the composition ingredients except coenzyme Q10 were made in 100 mL volumetric flasks. A 5 mg aliquot of coenzyme Q10 was then separately added to each of the flasks and shaken."}, "[2]": {"test": "Water solubility of coenzyme Q10 alone", "format": "physicochemical"}, "[3]": {"settings": "as disclosed in WO 95/05164; cited from earlier work"}}, "note": "Read-outs that look alike come from different tables or passages of the source."}
{"smiles": "COC1=C(OC)C(=O)C(C/C=C(\\C)CC/C=C(\\C)CC/C=C(\\C)CC/C=C(\\C)CC/C=C(\\C)CC/C=C(\\C)CC/C=C(\\C)CC/C=C(\\C)CC/C=C(\\C)CCC=C(C)C)=C(C)C1=O", "note": "[coenzyme Q10, 2,3-dimethoxy-5-methyl-6-decaprenyl-1,4-benzoquinone]", "values": [{"measurement": "behaviour in ultra sound bath", "setting": "[1]", "result": "dispersed then settled to the bottom of the flask"}, {"measurement": "dissolution or dispersion after shaking", "setting": "[1]", "result": "did not go into solution or form a dispersion"}, {"measurement": "water solubility", "setting": "[2]", "result": "not water soluble at any level"}, {"measurement": "water solubility", "setting": "[3]", "result": "practically insoluble in water"}]}
